Assay results: US7465748B2, “Amide derivative” (Astellas Pharma Inc., priority 2003, dated 2008)
Like-named read-outs stand apart in the source and are kept apart here.

What was measured:
VZV (strain CaQu) = assay: Anti-VZV activity assay (plaque reduction in HEF cells); format: cell-based, varicella zoster virus (VZV); conditions: human embryonic fibroblast (HEF) cells infected with VZV strain CaQu, plaque count after 3 to 4 days
Protocol: This assay was carried out in accordance with the method described by Shigeta S. (The Journal of Infectious Diseases, 147, 3, 576-584 (1983). Specifically, human embryonic fibroblast (HEF) cells were inoculated in a 96-well microtiter plate, using a growth culture medium [Eagle MEM (Nissui) supplemented with 10% (v/v) fetal bovine serum (FBS; Sigma)], for culturing in 5% CO2 at 37° C. for 4 days until a monolayer was formed. After washing the cells with a maintenance medium, the cells were inoculated with 100 μl/well of VZV (strain CaQu) which had been diluted to 20 to 30 pfu/100 μl with the maintenance medium (Eagle MEM supplemented with 2% FBS). The plate was centrifuged at 2,000 rpm for 20 minutes at room temperature and then incubated at 37° C. for 3 hours in an atmosphere of 5% CO2 to infect with VZV. After washing three times with the maintenance medium, 100 μl of each test drug diluted to an appropriate concentration with the maintenance medium was added to each well. After culturing the cells at 37° C. for 3 to 4 days in an atmosphere of 5% CO2, the cells were fixed with 100 μl/well of 10% formalin/PBS for 2 to 3 hours. […] After discarding the fixing solution and culture supernatant and subsequently washing the plate with water, a staining solution (0.025% Crystal Violet) was added at 50 μl/well for staining for 2 to 3 minutes, and then, the plate was washed with water and dried at 37° C. Cellular death is induced in the HEF cells infected with VZV, so that plaques of the dead cells are formed in the monolayer of the HEF cells.

HSV-1 (strain KOS) = assay: Anti-HSV-1 activity assay (MTT, MRC-5 cells); format: cell-based; conditions: HSV-1 strain KOS 50 TCID50/100 μl, 5 days culture, read-out: EC50 value (suppression of cellular death of MRC-5 cells via HSV-1 replication)
Protocol: 10,000 MRC-5 cells were inoculated and cultured in a 96-well microtiter plate, using the growth culture medium [Eagle MEM (Nissui) supplemented with 10% FBS] in 5% CO2 at 37° C. for 4 to 5 days until a monolayer was formed. After the cells were washed with the maintenance culture medium [Eagle MEM supplemented with 2% (v/v) FBS], 100 μl of the maintenance culture medium dissolving therein an appropriate concentration of a test reagent was added to each well. Immediately after the test drug was added, an HSV-1 (strain KOS) solution was inoculated at 50 TCID50 (50% tissue culture infectious dose)/100 μl. After the cells were cultured in 5% CO2 at 37° C. for 5 days, 20 μl of MTT solution [3-(4,5-dimethyl-2-thiazolyl)-2,5-diphenyl-2H-tetrazolium bromide; Sigma] (diluted with PBS to 7.5 mg/ml) was added to each well, for another 24-hour incubation. After the culture medium was discarded, 100 μl of a solvent (prepared by adding 10% Triton X 100 (v/v) and 0.4% hydrochloric acid to isopropanol) was added to each well, to solubilize the generated formazan. The absorbance at 540 nm or 690 nm was measured with a microplate reader. Based on the suppression ratio (%) of the cellular death of the MRC-5 cell via HSV-1 replication, the EC50 value of the test drug was calculated.

HSV-1 strain WT-51 = assay: Cutaneous HSV-1 infection mouse model; format: in vivo, HR-1 hairless mouse; conditions: 10 mg/kg twice a day for 5 days from 3 hours after infection, lesion score for 17 days
Protocol: Using a cutaneous HSV-1 infection mouse model prepared in accordance with the method of H. Machida et al. (Antiviral Res., 1992, 17, 133-143), in vivo activity of the compounds of the invention was tested. The skin of each HR-1 hairless mouse [female, 7 weeks of age] was scratched lengthwise and breadthwise several times using a needle and a virus suspension (HSV-1 strain WT-51, 1.5×10^4 PFU/15 μl) was droped to the scarified region for infection, while anesthetized with diethyl ether
Tested compounds were administered orally as a methyl cellulose suspension, except for compounds marked with asterisk which were dissolved in 20% Cremophor EL (Nakarai Tesuku)/20% polyethylene glycol (PEG) 400/60% H2O solution, starting at 3 hours after the infection, and then at a dose of 10 mg/kg twice a day for 5 days. The symptom of the skin lesion caused by HSV-1 infection were classified in the following scores for 17 days:
Score 0: no signs of infection.
Score 1: localized, barely perceptible small vesicles.
Score 2: slight vesicle spread.
Score 3: large patches of vesicles formed.
Score 4: zosteriform vesicles.
Score 5: large patches of ulcers formed.
Score 6: zosteriform with severe large ulcers.
Score 7: hind limb paralysis or death.
The AUC value was calculated from each group's mean disease score, and the disease inhibitory rate of the group administered with each test compound to the placebo group was calculated using the AUC.

[1] = oral, methyl cellulose suspension
[2] = Human alphaherpesvirus 3, read-out: EC50 value (concentration to inhibit 50% of the plaques)
[3] = Human alphaherpesvirus 1, MRC5, 120 h
[4] = asterisk: oral, dissolved in 20% Cremophor EL/20% PEG 400/60% H2O solution

## Cc1cccc(C)c1N(CC(=O)Nc1ccc(-c2ncon2)cc1)C(=O)C1CCS(=O)(=O)CC1 [Example 27, N-(2,6-dimethylphenyl)-N-(2-([4-<(1,2,4-oxadiazol-3-yl)phenyl]amino}-2-oxoethyl)tetrahydro-2H-thiopyran-4-carboxamide 1,1-dioxide]
VZV (strain CaQu); read-out: EC50 value (concentration to inhibit 50% of the plaques)
  EC50: 100 nM
HSV-1 (strain KOS)
  EC50: 60 nM

## Cc1ccc(N(CC(=O)Nc2ccc(-c3cocn3)cc2)C(=O)C2CCS(=O)(=O)CC2)cc1F [Example 14, N-(3-fluoro-4-methylphenyl)-N-(2-{[4-(1,3-oxazol-4-yl)phenyl]amino)-2-oxoethyl)tetrahydro-2H-thiopyran-4-carboxamide 1,1-dioxide]
HSV-1 strain WT-51; [1]
  Inhibitory activity (%) (disease inhibitory rate vs placebo from AUC of mean disease score): 98%

## Cc1cccc(C)c1N(CC(=O)Nc1ccc(-c2ccccn2)cc1)C(=O)C1CCS(=O)(=O)CC1 [Example 125]
VZV (strain CaQu); [2]
  EC50: 190 nM
HSV-1 (strain KOS); [3]
  EC50: 28 nM
HSV-1 strain WT-51; [4]
  Inhibitory activity (%) (disease inhibitory rate vs placebo from AUC of mean disease score): *80%

## Nc1nc(-c2ccc(NC(=O)CN(C(=O)C3CCS(=O)(=O)CC3)c3ccc4c(c3)CCC4)cc2)cs1 [Comparative Compound D, reference compound]
HSV-1 strain WT-51; [1]
  Inhibitory activity (%) (disease inhibitory rate vs placebo from AUC of mean disease score): 43%

## Nc1nc(-c2ccc(NC(=O)CN(C(=O)c3ccc(F)cc3)c3ccc4ncsc4c3)cc2)cs1 [Comparative Compound A, reference compound]
HSV-1 strain WT-51; [1]
  Inhibitory activity (%) (disease inhibitory rate vs placebo from AUC of mean disease score): 38%

## Cc1ccc(N(CC(=O)Nc2ccc(-c3cocn3)cc2)C(=O)C2CCS(=O)(=O)CC2)c(C)c1 [Example 6, N-(2,4-dimethylphenyl)-N-(2-{[4-(1,3-oxazol-4-yl)phenyl]amino}-2-oxoethyl)tetrahydro-2H-thiopyran-4-carboxamide 1,1-dioxide]
HSV-1 strain WT-51; [1]
  Inhibitory activity (%) (disease inhibitory rate vs placebo from AUC of mean disease score): 92%

## Cc1cccc(C)c1N(CC(=O)Nc1ccc(-c2cocn2)cc1)C(=O)C1CCS(=O)(=O)CC1 [Example 1, N-(2,6-dimethylphenyl)-N-(2-([4-(1,3-oxazol-4-yl)phenyl]amino)-2-oxoethyl)tetrahydro-2H-thiopyran-4-carboxamide 1,1-dioxide]
HSV-1 strain WT-51; [4]
  Inhibitory activity (%) (disease inhibitory rate vs placebo from AUC of mean disease score): *93%

## COc1ccc(N(CC(=O)Nc2ccc(-c3csc(N)n3)cc2)C(=O)C2CCS(=O)(=O)CC2)cc1 [Comparative Compound B, reference compound]
HSV-1 strain WT-51; [1]
  Inhibitory activity (%) (disease inhibitory rate vs placebo from AUC of mean disease score): 2%

## O=C(CN(C(=O)C1CCS(=O)(=O)CC1)c1ccc2c(c1)CCC2)Nc1ccc(-c2cocn2)cc1 [Example 11, N-(2,3-dihydro-1H-inden-5-yl)-N-(2-{[4-(1,3-oxazol-4-yl)phenyl]amino)-2-oxoethyl)tetrahydro-2H-thiopyran-4-carboxamide 1,1-dioxide]
VZV (strain CaQu); [2]
  EC50: 60 nM
HSV-1 (strain KOS); [3]
  EC50: 40 nM

## Cc1cc(N(CC(=O)Nc2ccc(-c3ncon3)cc2)C(=O)C2CCS(=O)(=O)CC2)ccc1Cl [Example 37, N-(4-chloro-3-methylphenyl)-N-(2-{[4-(1,2,4-oxadiazol-3-yl)phenyl]amino)-2-oxoethyl)tetrahydro-2H-thiopyran-4-carboxamide 1,1-dioxide]
HSV-1 strain WT-51; [1]
  Inhibitory activity (%) (disease inhibitory rate vs placebo from AUC of mean disease score): 100%

## COc1ccc(N(CC(=O)Nc2ccc(-c3csc(N)n3)cc2)C(=O)C2CCC(O)CC2)cc1 (stereo not drawn) [Comparative Compound C, reference compound]
HSV-1 strain WT-51; [1]
  Inhibitory activity (%) (disease inhibitory rate vs placebo from AUC of mean disease score): 44%

## Cc1cccc(C)c1N(CC(=O)Nc1ccc(-n2nccn2)cc1)C(=O)C1CCS(=O)(=O)CC1 [Example 98]
VZV (strain CaQu); [2]
  EC50: 140 nM
HSV-1 (strain KOS); [3]
  EC50: 42 nM
HSV-1 strain WT-51; [4]
  Inhibitory activity (%) (disease inhibitory rate vs placebo from AUC of mean disease score): *95%
